Structures are written as SMILES.

The results in this text go back to patent publication US8329681B2, “Methods and compositions for the efficient delivery of therapeutic agents to cells and animals” (University of Massachusetts, priority 2005, dated 2012).

The test system of data set [1] is HeLa cells. The experiment in a line: Cell Titer 96 AQueous One Solution (MTS) cytotoxicity assay. The conditions noted are these: liposomal formulation alone or in combination with DOPE and DOPC as co-lipid. The format is cell-based, human. As to the method: (§1) Alternatively, the cytotoxicity of the lipids was measured using the Cell Titer 96® AQueous One Solution Cell Proliferation Assay. The Cell Titer 96® AQueous One Solution Reagent contains a tetrazolium compound [3-(4,5-dimethylthiazol-2-yl)-5-(3-carboxymethoxyphenyl)-2(4-sulfophenyl)-2H-tetrazolium, inner salt; MTS^17] and an electron coupling reagent (phenazine ethosulfate; PES). The cytotoxicity assay was performed in 96 well plates by maintaining the ratio of number of cells to amount of cationic lipid constant as in transfection experiments. MTS was added 24 hours after transfection. Cell Titer 96® AQueous One Solution Reagent (20 ul) was pipetted into each well of the 96-well assay plate containing the samples in 100 μl of culture medium. In case of HeLa cells the plates were incubated for 2 hours, whereas for FL83B cells, plates were incubated for 4 hours at 37° C. in a humidified, 5% CO2 atmosphere. Absorbance was then recorded at 490 nm.
(§2) In a second experiment, FL83B and HeLa cells were plated on 96 well plate 18 hours prior to transfection. Then, liposome was added to each well and incubated for 24 hours. Thereafter, Cell Titer 96® AQueous One Solution Reagent was added and incubated for 4 hours. The MTS tetrazolium compound (Owen's reagent) is bioreduced by viable cells into a colored formazan product that is soluble in tissue culture […]. The absorbance of the formazan was measured at 490 nm with a 96 well plate reader.

Data set [2] has as its system FL83B cells. Kind of data set: Transfection of pSV-β-gal plasmid, β-galactosidase reporter activity. The format is cell-based, rat. On the procedure: (§3) Cationic lipids and the co-lipids in chloroform were dried under a stream of N2 gas and vacuum-desiccated for a minimum of 6 h to remove residual organic solvent. The dried lipid film was hydrated in sterile deionized water at cationic lipid concentration of 1 mM for a minimum of 12 h. Liposomes were vortexed to remove any adhering lipid film and probe sonicated until a clear translucent solution is formed. The pDNA solution was added to the liposomes, mixed properly by pipeting and shaken on a rotary shaker (15-30 mins.) before use.
(§4) Cells were seeded at a density of 20,000 (for HeLa cells), 16,000 (for A-549 cells), 8,000 (for FL83B cells) per well in a 96-well plate 18-24 h before transfection. An amount of 0.30 μg of pDNA was complexed with varying amounts of lipids (to give +/− ratios of 0.3:1, 1:1, 3:1 and 9:1) in plain OPTIMEM (total volume made up to 100 μl) and then shaken on a rotary shaker at room temperature for 20-30 minutes. The complexes were then added to the cells. After 5 h of incubation, 200 μl of complete medium containing 10% FBS in DMEM for HeLa and 10% FBS in F-12K for FL83B and A549 was added to the cells. The medium was changed after 24 h and the reporter gene activity was estimated 48 h after transfection. Cells were washed with PBS (100 μl) and lysed in […] lysis buffer (5× reporter lysis buffer diluted to 1×, working concentration). The β-galactosidase activity per well was estimated by adding 50 μl of 2× substrate solution (1.33 mg/ml of ONPG, 0.2 M sodium phosphate, pH 7.15 and 2 mM magnesium chloride) to the lysate in a 96-well plate. Absorbance of the product ortho-nitrophenol was measured at 420 nm. The absorbance values reported are the average values from two replicate experiments performed in the same plate on the same day. Each transfection experiment was performed three times on three different days to control for variations in transfection efficiency.
(§5) Briefly, the efficacy of various lipid formulations were tested in three cell lines A-549, FL83B and HeLa cells and the transfection efficiencies of the cationic liposomal formulations were compared with a commercially available transfection reagent (e.g., Lipofectamine 2000).

The test system of data set [3] is FL83B cells. Kind of data set: Cell Titer 96 AQueous One Solution (MTS) cytotoxicity assay. The conditions noted are these: liposomal formulation alone or in combination with DOPE and DOPC as co-lipid. The format is cell-based, rat. On the procedure:
as §1, §2

The test system of data set [4] is HeLa cells. Kind of data set: Transfection of pSV-β-gal plasmid, β-galactosidase reporter activity. The format is cell-based, human. As to the method: as §3, §4, §5
The subject of another data set is A549 cells. The data set is described as above. It counts as cell-based, human. On the procedure:
as §3, §4, §5

A further data set concerns CDK9 expression. Kind of data set: In vivo delivery of CDK9 siRNA with liposome by tail vein injection, CDK9 expression in spleen. Also on record: species or system BALB/c mice. The conditions noted are these: Cy3-labeled CDk9 siRNA (25 μg) and liposome (125 μg), repeated 4 and 8 h later, within the initial 24 h after treatment. As to the method:
Total RNA was extracted from tissues or cultured cells using Trizol (Invitrogen, Carlsbad, Calif.), and real-time RT-PCR for CDK9 and GAPDH mRNA quantification was carried out using 200 ng of total RNA and the QuantiTect SYBR Green RT-PCR Kit (Qiagen, Valencia, Calif.) according to the manufacturer's instructions. The ratio of CDK9 and GAPDH mRNA was calculated and expressed as a group average relative to the control group. The specific probe for detection of CDK9 mRNA levels was designed to the following regions of the CDK9 mRNA ORF, the forward primer 5′ TCGGACCAA AGCCTCACCGTATAA 3′, the reverse primer 5′ […] TTG 3′
Male BALB/c mice, 6-8 weeks of age and weighting 20-22 g, were purchased form the Jackson Laboratory (Bar Harbor, Me.). Synthetic siRNA were delivered in vivo using following method. For each mice 25 μg of siRNA in 100 μl of HEPES Buffered Saline (20 mM HEPES, 150 mM NaCl, pH 7.4) was transferred into a sterile tube. In a separate sterile tube 125 μg of liposome was mixed with 200 μl HEPES Buffered Saline. The siRNA solution was transferred to the tube containing liposome solution and then incubated at room temperature for 20 minutes. 200 μl of the complexes was injected via the tail vein, using a 1-ml syringe and 27-gauge needle. The injection was repeated 4 and 8 h later. Control mice were injected with an equal volume of liposome. At 24 h after the last injection, the mice were sacrificed and tissues were harvested for further analysis. CDK9 expression level was normalized with GAPDH and then compared to those obtained from control animals and shown as percent expression. The data represent the mean value +/− SD of three to five mice in each group.
Briefly, the ability of the new synthesized liposome to deliver siRNA in mice was investigated. BALB/c mice were administrated with complexes of Cy3-labeled CDk9 siRNA (25 μg) and liposome (125 μg) via normal pressure tail vein injection. The injection was repeated 4 and 8 h later. Control mice were administrated with an equal amount of liposome. […]

Where [5] appears, read: alone, lipid:DNA charge ratios 1:1 and 0.3:1.
Setting [6] is: in combination with DOPE, charge ratio 3:1.

`CCCCCCCCC=CCCCCCCCC(=O)OC(COC(=O)CCC(=O)OC1CCC2(C)C(=CCC3C2CCC2(C)C(C(C)CCCC(C)C)CCC32)C1)C[N+](C)(C)C.[I-]` (stereo not drawn) [Lipid 8, N,N,N-Trimethyl-N-[2-(9(Z)-octadecanoyloxy),3-succinyloxy(4-cholesteryloxy)-propyl]ammonium iodide]: the “cytotoxicity as compared to a control” value in the data set with HeLa cells [1] and with FL83B cells [3] was “non-toxic” each time. For the same compound, the “transfection efficiency compared with Lipofectamine 2000” value in the data set with FL83B cells [2] (setting [5]) is listed as “one fold less”; in the data set on FL83B cells [2] (in combination with DOPC, charge ratio 9.0:1.0 to 0.3:1.0), “about two fold less”; with HeLa cells [4] (in combination with DOPC, charge ratio of 1.1) it was “comparable”; in the data set with A549 cells (setting [5]), “one fold less”; in the data set on A549 cells (setting [6]), “comparable”. The “transfection efficiency, fold less than Lipofectamine 2000” value in the data set on FL83B cells [2] (setting [6]) was “more than 1.5 fold”; in the data set on HeLa cells [4] (setting [5]) it was roughly 1.5 fold; with HeLa cells [4] (setting [6]) it was “more than 1.5 fold”; in the data set with A549 cells (in combination with DOPC), “about 1 fold”. Besides, the “CDK9 expression level in the spleen decreased by” value in the data set with CDK9 expression came out at 28%.
